Results as given in ChEMBL document CHEMBL1201862, “PubChem BioAssay data set” (2004).
Calls of active or inactive are those of the source.

Assays:
NADPH oxidase 1 [1] = target: T1, NADPH oxidase 1 (Homo sapiens, UniProt Q9Y5S8); format: functional, cell-based
T1 sequence (Q9Y5S8 whole entry): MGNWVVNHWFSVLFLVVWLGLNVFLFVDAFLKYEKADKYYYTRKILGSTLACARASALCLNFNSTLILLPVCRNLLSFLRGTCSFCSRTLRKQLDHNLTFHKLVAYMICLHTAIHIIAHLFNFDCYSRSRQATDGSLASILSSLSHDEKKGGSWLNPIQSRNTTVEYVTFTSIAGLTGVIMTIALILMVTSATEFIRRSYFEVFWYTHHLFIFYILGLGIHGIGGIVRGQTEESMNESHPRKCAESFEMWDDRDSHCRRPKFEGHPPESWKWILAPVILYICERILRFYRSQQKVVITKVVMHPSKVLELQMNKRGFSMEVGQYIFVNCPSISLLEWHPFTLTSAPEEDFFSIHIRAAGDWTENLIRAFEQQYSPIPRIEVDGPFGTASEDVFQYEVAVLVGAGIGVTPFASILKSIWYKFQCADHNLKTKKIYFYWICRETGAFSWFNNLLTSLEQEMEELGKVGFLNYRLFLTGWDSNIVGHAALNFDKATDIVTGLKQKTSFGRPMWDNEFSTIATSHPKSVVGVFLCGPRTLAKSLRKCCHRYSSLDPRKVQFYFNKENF

[2] = target: Voltage-gated inwardly rectifying potassium channel KCNH2 (Homo sapiens, UniProt Q12809); test: hERG protection from proarrhythmic block, potency, dose response, cell-based, thallium flux (AID 2121); format: ADME
[3] = target: T2, Dual specificity protein phosphatase 3 (Homo sapiens, UniProt P51452); test: VHR1 phosphatase inhibitors, primary screen, biochemical, absorbance, uHTS (AID 1654)
[4] = target: Likely tRNA 2'-phosphotransferase (Candida albicans (strain SC5314 / ATCC MYA-2876) (Yeast), UniProt Q5A7N4); test: TPT1 tRNA phosphotransferase inhibitors, dose response, biochemical, fluorescence polarization (AID 2160)
[5] = target: T2, Dual specificity protein phosphatase 3; test: VHR1 phosphatase inhibitors, biochemical (AID 1878)
[6] = target: T3, Dual specificity protein phosphatase 6 (Rattus norvegicus, UniProt Q64346); test: MKP-3 phosphatase inhibitors, primary screen, biochemical, rat enzyme, in vitro (AID 425)
T3 sequence (Q64346 whole entry): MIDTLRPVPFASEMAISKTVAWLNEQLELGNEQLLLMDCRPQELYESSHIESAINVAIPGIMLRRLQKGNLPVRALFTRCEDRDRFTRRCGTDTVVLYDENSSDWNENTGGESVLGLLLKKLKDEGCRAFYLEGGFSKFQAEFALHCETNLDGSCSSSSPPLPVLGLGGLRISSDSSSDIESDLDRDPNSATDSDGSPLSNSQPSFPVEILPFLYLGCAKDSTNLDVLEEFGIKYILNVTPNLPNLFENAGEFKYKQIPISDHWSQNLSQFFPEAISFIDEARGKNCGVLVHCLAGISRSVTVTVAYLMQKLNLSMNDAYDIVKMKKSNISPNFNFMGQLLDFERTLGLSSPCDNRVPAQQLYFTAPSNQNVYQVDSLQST

Genome polyprotein = Genome polyprotein (Hepatitis C virus, UniProt Q2Q167); test: HCV core protein dimerization inhibitors, dose response, biochemical, TR-FRET (AID 2159); set-up: species or system Hepacivirus hominis;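 note: blocks dimerization of HCV core protein measured by TR-FRET between tagged core106 pairs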
[7] = target: Guanyl-specific ribonuclease T1 (Aspergillus oryzae (strain ATCC 42149 / RIB 40), UniProt P00651); test: RNase T1 inhibitors, dose response, counter-screen for TPT1 inhibitor project, biochemical, fluorescence polarization, 1536-well (AID 2167)
NADPH oxidase 1 [8] = target: T1, NADPH oxidase 1; test: Late-stage luminescence-based cell-based dose response assay to identify inhibitors of NADPH oxidase 1 (NOX1): Synthesized analogs 3.; format: functional
[9] = cytotoxicity in HPDE-C7 cells, cell-based, fluorescence, HTS (AID 430); format: functional; conditions: Homo sapiens
[10] = cytotoxicity in KRAS-transformed pancreatic duct cells, primary screen, cell-based, fluorescence, HTS (AID 431); format: functional; conditions: Homo sapiens;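 note: cell line used: HPDE-C7K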
Streptococcus = test: Group A Streptococcus viability loss, dose response, counter-screen for streptokinase expression inhibitor project, luminescence, BacTiterGlo (AID 1915); format: functional, organism-based;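 note: potency for reduction of bacterial viability or growth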
[11] = tested on: Streptococcus sp. 'group A'; test: growth inhibition of control SK(-) GAS strain, dose response, counter-screen for streptokinase expression inhibitor project, luminescence, kanamycin, BacTiterGlo, confirmation (AID 1900); format: functional, organism-based
H4 = test: Luminescence Cell-Based Dose Response HTS to Identify Activators of 5'UTR Stem-Loop Driven Prion Protein mRNA Translation in H4 Neuroglioblastoma Cells. [Related pubchem assays: 1829 (Project Summary), 1814 (Primary HTS)]; format: functional; conditions: Homo sapiens
[12] = Luminescence Cell-Based Dose Confirmation HTS to Identify Activators of 5'UTR Stem-Loop Driven Alpha-Synuclein mRNA Translation in H4 Neuroglioblastoma Cells. [Related pubchem assays: 1829 (Project Summary), 1814 (Primary HTS)]; format: functional
[13] = Luminescence Cell-Based Dose Response HTS to Identify Activators of Luciferase Translation or Activity in H4 […] Cells. [Related pubchem assays: 1829 (Project Summary), 1814 (Primary HTS)]; format: functional
[14] = A High Throughput Confirmatory Assay used to Identify Novel Compounds that Inhibit Mycobacterium Tuberculosis in the absence of Glycerol.; format: functional
[15] = target: Sphingosine 1-phosphate receptor 2 (Homo sapiens, UniProt O95136); test: Dose Response Cell Based Assay for Agonists of the S1P2 Receptor of Purchased Analogues. [Related pubchem assays: 729, 843, 854, 736 ]; format: functional
NADPH oxidase 1 [16] = target: T1, NADPH oxidase 1; test: Late-stage luminescence-based cell-based dose response assay to identify inhibitors of NADPH oxidase 1 (NOX1): Purchased analogs 2.; format: functional
[17] = target: Glyceraldehyde-3-phosphate dehydrogenase (Homo sapiens, UniProt P04406)
Bcl-2-related protein A1 [18] = target: T4, Bcl-2-related protein A1 (Mus musculus, UniProt Q07440); test: Bfl-1 binding inhibitors, SAR follow-up, biochemical, fluorescence polarization (AID 1070)
T4 sequence (Q07440 whole entry): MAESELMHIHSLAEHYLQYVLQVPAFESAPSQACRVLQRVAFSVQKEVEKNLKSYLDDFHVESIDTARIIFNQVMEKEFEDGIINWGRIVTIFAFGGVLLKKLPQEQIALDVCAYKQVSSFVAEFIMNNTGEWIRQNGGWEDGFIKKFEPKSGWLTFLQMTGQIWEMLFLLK

Bcl-2-related protein A1 [19] = target: T4, Bcl-2-related protein A1; test: Bfl-1 inhibitors blocking BH3 peptide binding, confirmation, biochemical, TR-FRET, mouse Bfl-1 (AID 621);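 note: TR-FRET binding of GST-Bfl-1 to FITC-labelled Bid peptide via terbium antibody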
Vero = test: West Nile virus antiviral activity, cell-based, CPE readout (AID 1621); format: functional; conditions: Chlorocebus sabaeus
[20] = Luminescence Cell-Based Dose Response HTS to Identify Inhibitors of 5'UTR Stem-Loop Driven Prion Protein mRNA Translation in H4 Neuroglioblastoma Cells. [Related pubchem assays: 1827 (Project Summary), 1813 (Primary HTS)]; format: functional
HT-1080 = test: cytotoxicity in HT1080 fibrosarcoma cells, cell-based, fluorescence readout (AID 620); format: functional; conditions: Homo sapiens
[21] = target: Luciferin 4-monooxygenase (Photinus pyralis, UniProt P08659); test: Counter Screen for Luciferase-based Assay Positives. [Related pubchem assays: 620, 618, 411 ]
[22] = Luminescence Cell-Based Dose Confirmation HTS to Identify Inhibitors of Polyadenylation.; format: functional
[23] = inhibitors of SNCA 5'UTR-driven reporter translation, confirmation, H4 neuroglioma cells, luminescence (AID 1988); format: functional, cell-based
Procathepsin L = Procathepsin L (Homo sapiens, UniProt P07711); test: cathepsin L inhibitors, dose response, counter-screen for M1/M17 aminopeptidase inhibitor project, biochemical, QFRET, 1536-well (AID 2214)
Aspartyl aminopeptidase = Aspartyl aminopeptidase (Plasmodium falciparum 3D7, UniProt Q8I2J3); test: Counterscreen for inhibitors of M1 and M17 aminopeptidases: QFRET-based biochemical high throughput dose response assay for inhibitors of the Plasmodium falciparum M18 Aspartyl Aminopeptidase (PFM18AAP). [Related PubChem assays: 1619 (Screening assay (M17LAP inhibitors).), 1445 (Screening assay (M1AAP inhibitors).)]
Aminopeptidase N = target: T5, Aminopeptidase N (Plasmodium falciparum FcB1/Columbia, UniProt O96935); test: P. falciparum M1AAP inhibitors, biochemical, fluorogenic H-Leu-NHMec substrate, 1536-well (AID 1445); set-up: species or system Plasmodium falciparum 3D7, 3D7
T5 sequence (O96935 whole entry): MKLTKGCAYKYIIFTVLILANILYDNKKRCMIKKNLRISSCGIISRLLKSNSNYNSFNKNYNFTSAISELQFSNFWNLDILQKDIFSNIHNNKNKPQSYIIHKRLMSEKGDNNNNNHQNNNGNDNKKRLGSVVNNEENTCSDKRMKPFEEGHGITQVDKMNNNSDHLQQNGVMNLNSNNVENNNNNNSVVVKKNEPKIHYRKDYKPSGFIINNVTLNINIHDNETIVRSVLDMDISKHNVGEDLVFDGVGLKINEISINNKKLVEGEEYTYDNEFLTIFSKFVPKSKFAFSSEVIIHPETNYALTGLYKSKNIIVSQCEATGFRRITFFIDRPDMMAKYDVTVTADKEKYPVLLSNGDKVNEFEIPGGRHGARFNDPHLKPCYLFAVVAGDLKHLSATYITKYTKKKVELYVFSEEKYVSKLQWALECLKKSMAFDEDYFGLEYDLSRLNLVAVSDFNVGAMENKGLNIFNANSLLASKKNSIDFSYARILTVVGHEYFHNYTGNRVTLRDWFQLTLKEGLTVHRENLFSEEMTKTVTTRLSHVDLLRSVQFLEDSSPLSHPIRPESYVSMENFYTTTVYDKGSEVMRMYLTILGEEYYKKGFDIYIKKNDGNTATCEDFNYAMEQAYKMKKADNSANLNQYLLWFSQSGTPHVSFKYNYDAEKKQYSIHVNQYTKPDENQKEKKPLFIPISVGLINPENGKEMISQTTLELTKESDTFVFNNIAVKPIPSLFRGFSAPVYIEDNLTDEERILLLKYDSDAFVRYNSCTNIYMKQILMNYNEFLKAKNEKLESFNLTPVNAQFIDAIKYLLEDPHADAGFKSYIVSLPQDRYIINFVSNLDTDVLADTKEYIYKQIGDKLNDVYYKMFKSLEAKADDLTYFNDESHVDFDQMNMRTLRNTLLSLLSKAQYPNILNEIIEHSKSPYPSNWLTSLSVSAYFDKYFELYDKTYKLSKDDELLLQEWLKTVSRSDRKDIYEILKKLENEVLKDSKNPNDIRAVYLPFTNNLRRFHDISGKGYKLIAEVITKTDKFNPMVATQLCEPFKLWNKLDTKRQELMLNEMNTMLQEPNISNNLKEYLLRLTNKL

T2 sequence (P51452 whole entry): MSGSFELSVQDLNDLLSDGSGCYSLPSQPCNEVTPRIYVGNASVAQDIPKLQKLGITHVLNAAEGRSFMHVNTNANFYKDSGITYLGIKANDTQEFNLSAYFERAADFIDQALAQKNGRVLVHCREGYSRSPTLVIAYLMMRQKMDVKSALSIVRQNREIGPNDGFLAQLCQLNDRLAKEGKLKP
Procathepsin L, sequence (P07711 whole entry): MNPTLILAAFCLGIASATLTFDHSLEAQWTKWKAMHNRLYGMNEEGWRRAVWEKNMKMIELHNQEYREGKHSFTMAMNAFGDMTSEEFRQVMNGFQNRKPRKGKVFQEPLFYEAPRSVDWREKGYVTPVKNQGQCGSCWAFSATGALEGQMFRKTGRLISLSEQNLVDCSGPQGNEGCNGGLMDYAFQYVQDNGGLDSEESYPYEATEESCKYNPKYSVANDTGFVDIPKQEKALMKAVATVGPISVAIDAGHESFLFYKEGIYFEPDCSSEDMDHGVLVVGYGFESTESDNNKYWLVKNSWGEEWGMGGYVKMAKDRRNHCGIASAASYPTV
Luciferin 4-monooxygenase, sequence (P08659 whole entry): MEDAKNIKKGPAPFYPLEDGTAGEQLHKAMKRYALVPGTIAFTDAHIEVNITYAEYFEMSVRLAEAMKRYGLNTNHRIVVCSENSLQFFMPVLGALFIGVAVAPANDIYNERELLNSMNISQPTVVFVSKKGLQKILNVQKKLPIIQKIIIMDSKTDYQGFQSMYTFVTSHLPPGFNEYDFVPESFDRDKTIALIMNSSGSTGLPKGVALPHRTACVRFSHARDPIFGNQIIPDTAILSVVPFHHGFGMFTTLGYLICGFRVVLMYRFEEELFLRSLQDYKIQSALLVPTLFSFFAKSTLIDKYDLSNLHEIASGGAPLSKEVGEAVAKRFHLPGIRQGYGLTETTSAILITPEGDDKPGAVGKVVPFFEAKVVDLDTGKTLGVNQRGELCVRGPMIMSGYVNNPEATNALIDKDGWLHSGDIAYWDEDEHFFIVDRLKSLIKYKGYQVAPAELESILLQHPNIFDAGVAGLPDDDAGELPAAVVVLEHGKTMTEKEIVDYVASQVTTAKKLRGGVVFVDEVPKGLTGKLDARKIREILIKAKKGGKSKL
Aspartyl aminopeptidase, sequence (Q8I2J3 whole entry): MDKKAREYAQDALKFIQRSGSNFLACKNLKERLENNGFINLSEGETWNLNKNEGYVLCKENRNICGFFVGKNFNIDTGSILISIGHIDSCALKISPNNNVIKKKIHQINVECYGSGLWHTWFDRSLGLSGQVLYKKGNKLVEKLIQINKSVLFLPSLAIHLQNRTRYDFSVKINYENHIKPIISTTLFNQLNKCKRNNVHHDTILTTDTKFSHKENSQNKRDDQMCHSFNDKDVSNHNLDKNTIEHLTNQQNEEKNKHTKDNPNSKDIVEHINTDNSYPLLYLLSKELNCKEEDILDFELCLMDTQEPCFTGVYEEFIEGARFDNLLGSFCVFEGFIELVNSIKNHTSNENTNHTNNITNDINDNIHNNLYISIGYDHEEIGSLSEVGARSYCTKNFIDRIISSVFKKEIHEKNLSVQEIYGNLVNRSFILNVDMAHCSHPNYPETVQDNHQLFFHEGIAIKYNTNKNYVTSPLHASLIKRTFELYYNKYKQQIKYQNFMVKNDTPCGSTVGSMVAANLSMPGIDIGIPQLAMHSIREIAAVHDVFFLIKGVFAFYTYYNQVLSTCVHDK
Likely tRNA 2'-phosphotransferase, sequence (Q5A7N4 whole entry): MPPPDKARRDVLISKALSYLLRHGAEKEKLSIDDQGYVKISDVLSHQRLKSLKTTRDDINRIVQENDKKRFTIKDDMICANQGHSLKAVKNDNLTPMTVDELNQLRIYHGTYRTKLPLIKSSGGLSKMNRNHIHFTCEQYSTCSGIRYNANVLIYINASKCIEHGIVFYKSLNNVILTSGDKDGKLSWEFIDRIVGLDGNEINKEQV
Glyceraldehyde-3-phosphate dehydrogenase, sequence (P04406 whole entry): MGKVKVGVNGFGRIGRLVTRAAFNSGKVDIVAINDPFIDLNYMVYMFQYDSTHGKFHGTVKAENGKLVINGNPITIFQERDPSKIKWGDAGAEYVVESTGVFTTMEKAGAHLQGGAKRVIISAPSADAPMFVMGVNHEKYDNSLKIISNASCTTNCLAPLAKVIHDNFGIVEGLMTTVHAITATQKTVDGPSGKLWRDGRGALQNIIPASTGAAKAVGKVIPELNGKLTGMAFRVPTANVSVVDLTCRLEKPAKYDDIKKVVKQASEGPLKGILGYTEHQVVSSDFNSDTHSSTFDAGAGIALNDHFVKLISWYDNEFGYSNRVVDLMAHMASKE
Voltage-gated inwardly rectifying potassium channel KCNH2, sequence (Q12809 whole entry): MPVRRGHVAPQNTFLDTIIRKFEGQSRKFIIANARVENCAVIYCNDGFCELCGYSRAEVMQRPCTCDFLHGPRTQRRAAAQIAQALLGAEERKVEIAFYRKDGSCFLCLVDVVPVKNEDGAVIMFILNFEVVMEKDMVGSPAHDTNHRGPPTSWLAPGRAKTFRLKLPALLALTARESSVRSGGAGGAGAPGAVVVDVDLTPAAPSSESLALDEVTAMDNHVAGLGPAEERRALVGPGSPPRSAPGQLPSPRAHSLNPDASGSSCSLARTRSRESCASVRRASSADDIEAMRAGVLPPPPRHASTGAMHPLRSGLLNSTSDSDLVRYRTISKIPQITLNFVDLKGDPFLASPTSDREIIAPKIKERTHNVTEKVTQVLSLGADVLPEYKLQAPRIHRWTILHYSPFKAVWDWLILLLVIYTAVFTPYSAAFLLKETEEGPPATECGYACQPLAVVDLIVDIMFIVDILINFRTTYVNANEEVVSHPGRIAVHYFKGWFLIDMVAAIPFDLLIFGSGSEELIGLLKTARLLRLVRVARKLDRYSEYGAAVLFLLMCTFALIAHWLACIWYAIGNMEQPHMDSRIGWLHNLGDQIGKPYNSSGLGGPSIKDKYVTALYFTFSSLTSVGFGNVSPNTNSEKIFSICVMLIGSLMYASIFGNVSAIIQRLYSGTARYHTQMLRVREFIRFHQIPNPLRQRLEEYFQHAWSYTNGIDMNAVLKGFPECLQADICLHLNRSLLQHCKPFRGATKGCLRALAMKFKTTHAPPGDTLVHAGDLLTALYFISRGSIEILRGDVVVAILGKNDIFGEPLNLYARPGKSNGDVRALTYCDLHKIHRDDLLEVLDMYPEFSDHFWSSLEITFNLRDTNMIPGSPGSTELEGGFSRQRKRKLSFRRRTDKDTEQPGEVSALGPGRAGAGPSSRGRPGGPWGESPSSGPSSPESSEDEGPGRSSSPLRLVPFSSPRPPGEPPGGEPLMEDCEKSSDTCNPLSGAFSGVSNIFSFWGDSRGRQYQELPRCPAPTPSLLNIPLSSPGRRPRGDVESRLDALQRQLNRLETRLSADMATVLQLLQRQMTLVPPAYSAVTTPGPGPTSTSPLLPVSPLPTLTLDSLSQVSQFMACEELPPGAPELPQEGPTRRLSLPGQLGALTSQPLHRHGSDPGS
Sphingosine 1-phosphate receptor 2, sequence (O95136 whole entry): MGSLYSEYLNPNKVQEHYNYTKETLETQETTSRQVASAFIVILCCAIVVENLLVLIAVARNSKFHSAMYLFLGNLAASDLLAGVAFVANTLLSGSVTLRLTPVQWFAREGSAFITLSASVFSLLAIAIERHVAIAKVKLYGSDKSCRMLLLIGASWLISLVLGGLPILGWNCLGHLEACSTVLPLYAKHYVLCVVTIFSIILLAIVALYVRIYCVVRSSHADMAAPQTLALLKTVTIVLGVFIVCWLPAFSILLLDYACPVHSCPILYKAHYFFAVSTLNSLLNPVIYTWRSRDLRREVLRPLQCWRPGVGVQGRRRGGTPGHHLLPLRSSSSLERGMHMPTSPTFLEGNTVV
Guanyl-specific ribonuclease T1, sequence (P00651 whole entry): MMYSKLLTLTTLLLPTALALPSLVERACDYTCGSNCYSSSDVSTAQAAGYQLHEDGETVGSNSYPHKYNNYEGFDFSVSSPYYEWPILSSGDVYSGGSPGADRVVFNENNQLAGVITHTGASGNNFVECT
Genome polyprotein, sequence (Q2Q167 whole entry): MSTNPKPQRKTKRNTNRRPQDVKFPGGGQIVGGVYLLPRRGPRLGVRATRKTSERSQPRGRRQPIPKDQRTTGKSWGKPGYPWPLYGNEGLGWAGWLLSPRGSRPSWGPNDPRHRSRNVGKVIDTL

SMILES: Oc1ccccc1-c1nc(-c2ccccc2)c(-c2ccccc2)[nH]1
- IC50 (NADPH oxidase 1 [1]): > 17 µM (not active)

SMILES: Cc1ccccc1N1C(=O)/C(=C/c2ccco2)C(=O)NC1=S
- EC50 [2]: 0.71 µM (active)
- IC50 [3]: < 1.23 µM (inactive)
- IC50 [4]: 2.44 µM (active)
- IC50 [5]: < 1.23 µM (inactive)
- IC50 [6]: < 1.23 µM (not active)
- IC50 (Genome polyprotein): 4.78 µM (active)
- IC50 [7]: > 55.7 µM (not active)

SMILES: CN1c2ccc(N)cc2Sc2cc(C(=O)c3ccccc3)ccc21
- IC50 (NADPH oxidase 1 [8]): 0.201 µM (active)

SMILES: Oc1nc2ccc(Cl)cc2c(-c2ccccc2)c1N1CCN(c2ccccn2)CC1
- EC50 [9]: 5.29 µM (active)
- EC50 [10]: 8.58 µM (active)
- EC50 (Streptococcus): 45.8 µM (active)
- EC50 [11]: 5.29 µM (active)

SMILES: COc1ccc2c(c1)CC/C(=C\C=C\c1ccccc1OC)C2=O
- EC50 (H4): 13.8 µM (active)
- EC50 [12]: > 120 µM (not active)
- EC50 [13]: 1.99 µM (active)
- IC50 [14]: > 100 µM (active)

SMILES: Cc1cc(C(=O)COC(=O)Cn2c(=O)oc3ccccc32)c(C)n1Cc1ccccc1
- EC50 [15]: > 30 µM (not active)

SMILES: COc1ccc(/C=N/Nc2c(Cl)cc(Cl)cc2Cl)cc1
- IC50 (NADPH oxidase 1 [16]): > 17 µM (not active)

SMILES: O=C1C(Cl)=C(N2CCCCC2)C(=O)N1c1ccc(Cl)c(Cl)c1
- IC50 [17]: > 100 µM (not active)
- IC50 (Bcl-2-related protein A1 [18]): > 100 µM (not active)
- IC50 (Bcl-2-related protein A1 [19]): 1.3 µM (active)

SMILES: Cc1ccc2cc(C#N)c(N3CCCN(C(S)=NCCCN(C)C)CC3)nc2c1
- IC50 (Vero): 24.4 µM (active)

SMILES: O=c1c2sc(-c3ccccc3)cc2nc2n1CCC2
- EC50 [20]: 11.8 µM (inconclusive)
- EC50 (HT-1080): > 50 µM (not active)
- EC50 [21]: < 0.2 µM (active)
- EC50 [22]: > 120 µM (not active)
- EC50 [23]: 8.3 µM (active)

SMILES: O=C(O)CCC(=O)N1N=C(c2c(-c3ccccc3)c3cc(Cl)ccc3[nH]c2=O)CC1c1ccccc1 (stereo unspecified)
- IC50 (Procathepsin L): > 59.6 µM (not active)
- IC50 (Aspartyl aminopeptidase): > 73.5 µM (not active)
- IC50 (Aminopeptidase N): 4.6 µM (active)
